The text below walks through data of US9351998B2, “Methods of nourishing animals” (MariCal, Inc., priority 2008, dated 2016).

One assay relates to chick jejunal CaSR. As to the kind of experiment: phospho-ERK immunoblot of HEK cells transfected with chick jejunal CaSR cDNA after increase in extracellular Ca2+. The class given is cell-based, chicken. The settings on record: extracellular Ca2+ increased 0.5 mM to 10 mM. The procedure:
HEK-293 cells were plated into 6-well plates so that the cells were 90% confluent at the time of transfection. The linearized and non-linearized plasmids were ethanol precipitated and quantified spectrophotometrically. A ratio of DNA to lipofectamine of 1:3.5 (4 μg of DNA and 14 μl Lipofectamine 2000) was used for the transfection procedure. To provide a negative control, only Lipofectamine was added to some HEK cells. After exposure to lipofectamine, hygromycin B (400 μg/ml) was used to select for HEK cells that had been transfected since the plasmid containing the putative CaSR sequence also contained a hygromycin resistance element.
At the start of hygromycin selection, flasks were about 40% confluent. All flasks experienced a high percentage of die off cells. After an interval of 10 days, all the cells in the negative control flasks were dead. […] Linear flask 1 and non-linear flask 1 were trypsinized by addition of 200 μl trypsin to redistribute dense colonies and prevent overcrowding 10 days after the start of hygromycin selection. New complete media was added containing 400 μg/ml hygromycin. At day 14, flasks had multiple colonies that were well spread out and were beginning to look overcrowded. Each flask was trypsinized, centrifuged and re-plated in a new flask, still under hygromycin selection. At day 17, transfected HEK cells were 60% confluent. […]

The next assay addresses T1, mammalian CaSR (Homo sapiens, UniProt P41180).
T1 construct: expressed in transfected cells; host or cells: HEK cells stably expressing the mammalian CaSR
T1 sequence (P41180 20-1078): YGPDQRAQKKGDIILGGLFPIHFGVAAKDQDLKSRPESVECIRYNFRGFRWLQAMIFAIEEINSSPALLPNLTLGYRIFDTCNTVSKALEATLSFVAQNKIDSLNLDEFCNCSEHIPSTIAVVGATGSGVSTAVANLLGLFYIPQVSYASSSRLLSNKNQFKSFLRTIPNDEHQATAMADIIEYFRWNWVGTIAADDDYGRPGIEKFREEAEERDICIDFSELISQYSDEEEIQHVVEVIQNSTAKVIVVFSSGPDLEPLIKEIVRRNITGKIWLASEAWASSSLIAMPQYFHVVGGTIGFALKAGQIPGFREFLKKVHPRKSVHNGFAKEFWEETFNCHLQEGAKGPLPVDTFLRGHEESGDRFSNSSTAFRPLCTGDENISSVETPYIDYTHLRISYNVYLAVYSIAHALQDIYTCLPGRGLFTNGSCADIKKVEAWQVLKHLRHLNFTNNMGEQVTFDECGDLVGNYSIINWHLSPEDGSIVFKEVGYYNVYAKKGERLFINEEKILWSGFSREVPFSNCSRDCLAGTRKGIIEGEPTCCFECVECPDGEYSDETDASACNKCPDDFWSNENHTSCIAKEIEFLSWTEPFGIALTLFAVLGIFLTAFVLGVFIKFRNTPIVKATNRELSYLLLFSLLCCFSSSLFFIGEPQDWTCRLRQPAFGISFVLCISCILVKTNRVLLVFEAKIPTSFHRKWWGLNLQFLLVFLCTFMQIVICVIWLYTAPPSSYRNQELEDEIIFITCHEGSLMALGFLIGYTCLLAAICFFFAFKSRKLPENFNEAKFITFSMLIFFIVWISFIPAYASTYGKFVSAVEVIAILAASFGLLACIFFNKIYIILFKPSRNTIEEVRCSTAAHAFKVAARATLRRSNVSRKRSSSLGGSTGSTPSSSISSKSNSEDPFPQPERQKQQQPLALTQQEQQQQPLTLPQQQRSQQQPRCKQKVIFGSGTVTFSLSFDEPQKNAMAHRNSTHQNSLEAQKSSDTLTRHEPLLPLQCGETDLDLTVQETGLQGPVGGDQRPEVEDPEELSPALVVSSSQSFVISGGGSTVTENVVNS
As to the kind of experiment: FURA2 ratio imaging fluorimetry of HEK cells stably expressing mammalian CaSR. The class given is cell-based. The text has this:
(§1) All methods and equipment utilized to perform experiments on HEK cells have been reported previously (Gama, L. and Breitwieser, G. E. 1998. A carboxyl-terminal domain controls the cooperativity for extracellular Ca2+ activation of the human calcium sensing receptor. A study with receptor-green fluorescent protein fusions. J. Biol. Chem. 273, 29712-29718; Bai, M., Quinn, S., Trivedi, S., Kifor, 0., Pearce, S. H., Pollak, M. R., Krapcho, K., Hebert, S. C. and Brown, E. M. 1996. Expression and characterization of inactivating and activating mutations in the human Ca2+o-sensing receptor. J. Biol. Chem. 271, 19537-19544). Untransfected HEK cells or, alternatively, cells transfected and expressing CaSR protein were cultured in Dulbecco's Modified Eagle Medium containing 10% fetal bovine serum and 1% penicillin-streptomycin in 75 cm^2 flasks until they reached confluence. Media was removed from the flasks and cells were loaded by exposure to Loading Buffer (125 mM NaCl, 4 mM KCl, 1.0 mMCaCl2, 1.0 mM MgCl2, 1 mM NaH2PO4, 20 mM HEPES, 1 gm/liter bovine serum albumin, and 1 gm/l glucose, pH ˜7.4, osmolality ˜285) containing 4.1 micromolar FURA2-AM (Molecular Probes Inc. Eugene, Oreg.) for 2 hr. Cells were then scraped from the surface of the flask using a standard cell scraper (Costar 3010, Corning Inc.). Cells were then pelleted from the suspension by low speed centrifugation to remove loading buffer and rinsed twice to remove extracellular FURA2 dye by two sequential suspensions and pelleting steps using low speed centrifugation. Immediately prior to the start of the experiment, cells were resuspended in various experimental buffers for analyses as described below. The Standard Experimental Buffer used for many studies was composed of: 125 mM NaCl, 4 mM KCl, 0.5 mMCaCl2, 0.5 mM MgCl2, 20 mM HEPES, 1 g/l glucose, pH ˜7.4, osmolality ˜285. All other buffers were variations on this basic composition where specific components within the Standard Experimental Buffer were varied while the remaining components were held constant.
(§2) Cell suspensions consisting of a total volume of 3 ml were analyzed in a PTI fluorimeter (PTI Model 814 Photomultiplier Detection System equipped with SC-500 Shutter Controller and PTI Driver and Analysis Software) within approximately 20 min after exposure to experimental buffers. Data was acquired using standard ratio image analysis as described previously using a data acquisition rate of 1.3 sec. for 500 or 1000 second intervals.
(§3) In selected experiments, the detergent Triton X-100 was added in order to lyse the cells and quantify differences in FURA2 ratio fluorescence. Triton X-100 was added to the cells to obtain a maximal fluorescence signal from the FURA2 for purposes of quantification.
Experiments on HEK cells were performed generally as described in Example 6 herein. […] Subsequent addition of Ca2+ to a final concentration of 5 mM produced an additional response (see FIG. 26A). No response was observed upon addition of 0.025% Mintrex Zn after the addition of experimental buffer (EB) (see FIG. 26B). […] In addition, the magnitude of the CaSR response to 5 mM Ca2+ was diminished by previous addition of Mintrex Zn.
For mammalian CaSR experiments, two individual aliquots from a single pool of HEK cells that stably express the recombinant mammalian CaSR protein were used for ratio imaging fluorimetry assays of CaSR activation generally as described in Example 6 herein. Addition of Ca++ to a final concentration of 2.5 mM produced a CaSR response that was also followed by responses after subsequent additions of 0.025% Zn proteinate followed by Ca++ to a final concentration of 7.5 mM (FIG. 29B). […] There was also a response to a subsequent dose of Ca++ to a final concentration of 7.5 mM (FIG. 29B). In both tracings, the detergent Triton X-100 was added as a final step to lyse the cells.
Experiments on HEK cells were performed generally as described in Example 6 herein. […]

The subject of another assay is avian CaSR. As to the kind of experiment: FURA2 ratio imaging fluorimetry of HEK cells stably expressing avian (chicken) CaSR. Type of assay: cell-based.
Text: as §1, §2, §3
The ability of the CaSR modulator MC0100 to potentiate the response of avian and mammalian CaSRs to the chelated mineral amino acid complex, ZnPro, was tested. For avian CaSR experiments, three individual aliquots from a single pool of HEK cells that stably express the recombinant avian CaSR protein were used for ratio imaging fluorimetry assays of CaSR activation generally as described in Example 6 herein. […] In all aliquots, the detergent Triton X-100 was added as the last addition to lyse the cells (FIG. 29A).
From a single pool of HEK cells stably expressing the avian CaSR, aliquots of cells were removed and analyzed using ratio imaging fluorimetry generally as described in Example 6 herein. After a standard addition of Ca++ to a final concentration of 2.5 mM, either 0.0025%, 0.025% or 0.25% Zinc Proteinate was added followed by a second addition of Ca++ to a final concentration of 7.5 mM. Subsequently, an aliquot of the detergent Triton X-100 was added to lyse the cells. […] The magnitude of the subsequent CaSR response to Ca++ was reduced via increasing Zn Proteinate stimulation.
Fluorimetry analysis was performed on HEK cells expressing the recombinant chicken CaSR protein generally as described in Example 6 herein.

The target of assay [1] is T2, recombinant human CaSR protein (Homo sapiens, UniProt P41180).
T2 construct: expressed in transfected cells; host or cells: HEK cells
T2 sequence (P41180 20-1078): T1 sequence (P41180 20-1078)
Put plainly: FURA2 ratio fluorimetry of HEK cells expressing recombinant human CaSR. Type of assay: cell-based.
Text: as §1, §2, §3

The target of the next assay is recombinant CaSR protein (Homo sapiens, UniProt P41180). The settings on record: concentrations of spermine and calcium present in sow's milk (FIG. 20C); cited from earlier work.
A further assay has as its system chicken CaSR. Put plainly: CaSR dependent ERK 1/2 phosphorylation (Western blot) in HEK cells transfected with chicken CaSR. The class given is cell-based. The following applies: various concentrations of bacitracin Zn. The protocol:
HEK cells transfected with the chicken CaSR were cultured under standard conditions (DMEM with 10% FCS). Confluent flasks were serum-starved overnight in DMEM supplemented with 0.2% BSA and pre-incubated for 60 min at 37° C. in the following medium: 125 mM NaCl, 4 mM KCl, 20 mM Hepes, 0.1% glucose, 0.8 mM NaH2PO4, 1 mM MgCl2, 0.1% BSA, 0.5 mM CaCl2, pH 7.45. The cells were then incubated in the same medium without BSA in the presence of different mineral chelates at different concentrations (see below) for 15 min at 37° C. At the end of the incubation treatment media was removed and cells were washed with PBS and than lysed in 250 microliter of M-PER lysis buffer (Pierce Chemical Company, Rockford, Ill.) containing 10 ul/ml of protease inhibitors (Pierce Chemical Company, Rockford, Ill.). Cell lysates were centrifuged for 10 min at 4° C. at 14,000×g. The protein content in the supernatants was analyzed using the BCA Protein Assay system from Pierce Chemical Company, Rockford, Ill. Equal amounts of protein (20 ug) were combined with 4× loading buffer and […] DTT, heated to 95° C., separated by SDS gel electrophoresis and electrotransferred to PVD membranes. The membranes were incubated in 1% BSA in TBS-T (TRIS-buffered saline containing Tween 20 at 0.1%) overnight. After 4 washes in TBS-T the membranes were incubated with primary antibody (anti phosphoERK at 1:400 dilution; this antibody recognizes the phosphorylated form of ERK 1/2) for 1.5 hours at room temperatures, washed 4 times and incubated with secondary antibody (anti mouse at 1:50,000 dilution). After 4 washes in TBS-T the membranes were developed using the ECL Western Blotting system.
The experiments described in FIGS. 34 A and B used the following metal chelate treatments: ZnProteinate, CuProteinate and MnProteinate (Balchem Corporation, New Hampton, N.Y.) at the following concentrations: 0.025% and 2.5%, or at a concentration of 0.025% with 1 micromolar MC 0100 (a calcimimetic); or various concentrations of bacitracin Zn.
A general note: Immunoblotting shows a protein as a band on a membrane.

Entries after “also recorded” stand apart in the source; their conditions may differ.

Chain of chicken CaSR (as listed by the source): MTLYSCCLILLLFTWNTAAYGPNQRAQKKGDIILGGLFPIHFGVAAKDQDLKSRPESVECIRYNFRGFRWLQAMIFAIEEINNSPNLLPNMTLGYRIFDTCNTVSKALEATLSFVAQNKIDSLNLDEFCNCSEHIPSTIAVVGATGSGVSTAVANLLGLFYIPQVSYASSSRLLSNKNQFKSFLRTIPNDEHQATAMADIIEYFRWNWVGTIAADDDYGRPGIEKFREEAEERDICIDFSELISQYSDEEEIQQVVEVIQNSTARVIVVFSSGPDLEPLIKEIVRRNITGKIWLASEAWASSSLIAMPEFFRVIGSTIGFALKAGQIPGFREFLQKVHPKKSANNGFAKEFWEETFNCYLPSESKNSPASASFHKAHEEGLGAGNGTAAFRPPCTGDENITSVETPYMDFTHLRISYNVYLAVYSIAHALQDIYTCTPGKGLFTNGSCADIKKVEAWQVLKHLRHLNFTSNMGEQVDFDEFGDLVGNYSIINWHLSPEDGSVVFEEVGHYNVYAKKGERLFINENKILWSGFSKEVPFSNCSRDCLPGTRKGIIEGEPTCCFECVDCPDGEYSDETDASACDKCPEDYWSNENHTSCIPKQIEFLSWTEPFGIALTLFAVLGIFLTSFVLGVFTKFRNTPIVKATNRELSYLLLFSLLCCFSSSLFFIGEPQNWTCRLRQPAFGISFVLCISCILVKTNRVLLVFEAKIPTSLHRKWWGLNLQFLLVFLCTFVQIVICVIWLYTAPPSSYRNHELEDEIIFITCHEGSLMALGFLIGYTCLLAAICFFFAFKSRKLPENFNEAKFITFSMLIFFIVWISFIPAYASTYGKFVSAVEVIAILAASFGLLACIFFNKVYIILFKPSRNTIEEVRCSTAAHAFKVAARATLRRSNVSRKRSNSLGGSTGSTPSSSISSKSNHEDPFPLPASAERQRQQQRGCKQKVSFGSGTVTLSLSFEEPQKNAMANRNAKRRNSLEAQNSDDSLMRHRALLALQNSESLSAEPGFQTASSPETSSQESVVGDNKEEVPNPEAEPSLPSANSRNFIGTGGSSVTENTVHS

In the case of `[Ca+2]` [Ca2+], the “activation of the ERK kinase pathway (phospho-ERK)” value in the assay on chick jejunal CaSR is on record as “selective activation”.

`N[C@@H](Cc1ccccc1)C(=O)O` [L-Phenylalanine]: the “effect on Mintrex Zn inhibition of CaSR response to Ca++ stimulus” value was “reversed Mintrex-Zn's inhibition” on mammalian CaSR (3 mM L-Phe after 0.025% Mintrex Zn, 1.5 mM Ca++, Ca++ to 5 mM) and “reversed Mintrex-Zn's inhibition” in the assay with avian CaSR (3 mM L-Phe after 0.25% Mintrex Zn, Ca++ to 7.5 mM).

Regarding `CC(C)(Cc1ccc2ccccc2c1)NC[C@@H](O)COc1cccc(Cl)c1C#N` [MC106], on mammalian CaSR (1 micromolar MC106 added first), the “effect on CaSR response to 2.5 mM Ca2+” value is “eliminated” and the “effect on subsequent CaSR response to 5 mM Ca2+” value is recorded as “reduced”. The “CaSR response to the modulator itself” value on mammalian CaSR (1 micromolar MC106 in DMSO) is recorded as “did not itself produce a CaSR response; also recorded: did not elicit a CaSR response”. Besides, on mammalian CaSR (initial addition of 1 micromolar MC106), the “effect on CaSR responses to 0.25% Mintrex Zn or 5.5 mM Ca2+” value is “reduced or eliminated responses”. The “effect of modulator on CaSR stimulation by Mintrex Zn” value at mammalian CaSR (pre-addition of MC106 (FIG. 30D)) is “suppress the stimulation”. Also, the “effect of prior modulator on CaSR response to Zn Proteinate” value with avian CaSR (1 micromolar MC106, 0.25% Zinc Proteinate) is recorded as “reduced the avian CaSR's response”.

In the case of `NCCCN` [diaminopropane], the “activation of recombinant human CaSR (intracellular calcium)” value (shortened to “activation … (intracellular calcium)”) in assay [1] was “sharp increase in intracellular calcium”.

`N=C(N)NCCC[C@H](N)C(=O)O.NCC(=O)O.NCC(=O)O` [gly-gly-arg, glycine-glycine-arginine]: the “activation … (intracellular calcium)” value in assay [1] is listed as “significant activation”.

As to `NCCCNCCCCNCCCN` [spermine], on recombinant CaSR protein, the “activation of recombinant CaSR” value is on record as “activated”.

For the molecule Casein, in assay [1], the “activation … (intracellular calcium)” value was “acts as an agonist”.

Take bacitracin Zn: the “ERK1/2 phosphorylation as compared to Ca++ with MC0100” value in the assay with chicken CaSR is reported as “increase in ERK1/2 phosphorylation”.

With “bovine serum albumin: a protein that also binds calcium”, the “activation … (intracellular calcium)” value in assay [1] is on record as “has no effect”.
